Results reported in US20260256771A1, “GALUNISERTIB FOR USE IN THE TREATMENT OF ANDROGENIC ALOPECIA” (SAÚDE VIÁVEL, S.A., priority 2022, published 2026).

Test system: human hair follicle organ cultures (HFOCs)
Assay: Ex vivo human scalp hair follicle organ culture: catagen onset and hair shaft elongation
Format: cell-based
Settings: 10 μM; in comparison to untreated controls; 10 days culture
Excerpt: FIG. 2. Galunisertib delays catagen entry in HFOCs. a) Hair growth ex vivo (HFOCs) under different treatment conditions for 10 days. Representative HF photos for each condition over time are shown in the panels. DP detachment was used as readout for catagen onset. Scale bar, 1 mm. b) Catagen onset timing in HFOCs under different treatment conditions as indicated. c) Percentage of hair shaft elongation in comparison to day 0. In b) and c), values are mean±SD of HFOCs established from n=5 independent donors (n>20 HFs per condition). ns not significant, *p≤0.05, **p≤0.01 by Mann-Whitney (b,c).
In addition, only anagen hair follicles are used.
Hair growth percentages is normalized to day 0.

`Cc1cccc(-c2nn3c(c2-c2ccnc4ccc(C(N)=O)cc24)CCC3)n1` [Galunisertib] was tested, and the “catagen entry (mean time HFOCs take to enter catagen)” value was “capable of delaying catagen entry” and the hair shaft elongation was “impact in the hair shaft elongation”.
